In patent US11369565B2, “Amino-pyrimidine skeletal muscle modulators” (Cytokinetics, Inc., priority 2010, dated 2022):

System: rabbit skeletal myofibrils (approximately 90% fast fibers)
Assay: Activation of fast skeletal myofibrils (PUMA coupled-enzyme ATPase assay at pCa25)
Format: biochemical
Settings: concentration at which the compound increased the enzymatic activity by 40%; calcium at pCa25; PM12 buffer pH 6.8
Outline: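 Detergent-washed rabbit psoas myofibrils tested at calcium giving 25% of maximal rate (pCa25). ATPase activity tracked by pyruvate kinase/lactate dehydrogenase coupling, NADH oxidation read as absorbance at 340 nm, in PM12 buffer (12 mM Pipes, 2 mM MgCl2, 1 mM DTT, pH 6.8).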

ethyl 1-[(2-{[2-(4-fluorophenyl)-2- methylpropyl]amino}pyrimidin-5- yl)carbonylamino] cyclopropanecarboxylate
Mean AC1.4: D (D=>20 uM)
